Values after ≈ are worked out from the molar mass of the structure shown. Values joined by “and” are separate entries in the source; they are usually repeats but may differ in a detail not shown here. Equal values may be shown once. Read-outs that look alike come from different tables or passages of the source. Marks after values point to notes of the source that are not given here.
Assays:
in vitro = conditions: dog
[1] = tested on: influenza A virus A/Jena/8178/09 (subtype A(H1N1)pdm09); assay: Influenza A virus-induced CPE inhibition assay in MDCK cells (A/Jena/8178/09); type: cell-based; conditions: A(H1N1)pdm09, 48 h, maximum 100 µM, n.a. = not active, read-out: IC50 (IAV) Jena/8178
[2] = tested on: neuraminidase of influenza A virus (IAV NA); assay: Human erythrocyte-based (hemagglutination-based) viral neuraminidase inhibition assay; type: biochemical, influenza A virus A/Jena/8178/09; conditions: human erythrocytes, 37 °C for 24 h, maximum 100 µM for test compounds
[3] = biological target: T1, neuraminidase NanA of S. pneumoniae strain DSM20566 (Streptococcus pneumoniae, UniProt P62575); assay: Lectin-based hemagglutination NA inhibition assay with pneumococcal neuraminidase; type: biochemical; conditions: ethanol-precipitated proteins of S. pneumoniae DSM20566, lectin-based hemagglutination assay
T1 sequence (P62575 54-1035): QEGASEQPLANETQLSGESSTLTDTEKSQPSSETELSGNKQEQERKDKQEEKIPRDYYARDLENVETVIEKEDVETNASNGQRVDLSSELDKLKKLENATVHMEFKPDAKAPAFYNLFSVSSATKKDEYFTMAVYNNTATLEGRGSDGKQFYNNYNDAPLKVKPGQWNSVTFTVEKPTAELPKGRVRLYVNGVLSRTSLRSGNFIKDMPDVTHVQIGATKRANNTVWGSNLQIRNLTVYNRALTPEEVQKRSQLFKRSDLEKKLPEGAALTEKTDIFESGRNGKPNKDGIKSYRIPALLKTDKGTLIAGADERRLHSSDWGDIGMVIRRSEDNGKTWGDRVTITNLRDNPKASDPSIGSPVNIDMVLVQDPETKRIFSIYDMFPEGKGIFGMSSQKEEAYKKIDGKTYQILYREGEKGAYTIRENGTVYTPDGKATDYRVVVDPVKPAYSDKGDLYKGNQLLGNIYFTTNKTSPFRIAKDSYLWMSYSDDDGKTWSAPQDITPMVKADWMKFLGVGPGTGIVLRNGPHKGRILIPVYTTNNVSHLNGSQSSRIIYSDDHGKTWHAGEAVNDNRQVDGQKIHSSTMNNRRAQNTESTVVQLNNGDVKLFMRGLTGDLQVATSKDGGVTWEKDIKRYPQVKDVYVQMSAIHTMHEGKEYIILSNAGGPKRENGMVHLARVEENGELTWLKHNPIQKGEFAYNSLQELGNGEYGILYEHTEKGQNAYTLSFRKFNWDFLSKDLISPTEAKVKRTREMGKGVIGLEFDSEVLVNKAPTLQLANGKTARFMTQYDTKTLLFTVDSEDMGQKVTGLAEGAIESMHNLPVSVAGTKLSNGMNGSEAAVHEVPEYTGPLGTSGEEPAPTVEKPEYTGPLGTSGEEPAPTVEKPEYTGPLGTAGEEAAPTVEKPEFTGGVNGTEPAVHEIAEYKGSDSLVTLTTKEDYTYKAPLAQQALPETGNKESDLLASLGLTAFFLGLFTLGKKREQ

S. pneumoniae DSM20566 [4] = assay: Planktonic growth inhibition, microtiter broth microdilution assay; type: cell-based, Streptococcus pneumoniae; conditions: read-out: IC50 Planktonic growth
[5] = tested on: influenza A virus A/HK/1/68 (subtype H3N2); assay: Influenza A virus-induced CPE inhibition assay in MDCK cells (A/HK/1/68); type: cell-based; conditions: H3N2, 48 h, maximum 100 µM, n.a. = not active, read-out: IC50 (IAV) HK/1/68
S. pneumoniae DSM20566 [6] = assay: Biofilm formation inhibition assay (crystal violet); type: cell-based, Streptococcus pneumoniae; conditions: read-out: IC50 Biofilm formation
viral hemagglutinin = viral hemagglutinin (Influenza A virus, UniProt C3W5S1); assay: Human erythrocyte-based assay, inhibition of viral hemagglutinin-induced hemagglutination at 4 °C; type: biochemical; conditions: human erythrocytes, influenza A virus A/Jena/8178/09
Chain of viral hemagglutinin (C3W5S1 18-344 limits assumed): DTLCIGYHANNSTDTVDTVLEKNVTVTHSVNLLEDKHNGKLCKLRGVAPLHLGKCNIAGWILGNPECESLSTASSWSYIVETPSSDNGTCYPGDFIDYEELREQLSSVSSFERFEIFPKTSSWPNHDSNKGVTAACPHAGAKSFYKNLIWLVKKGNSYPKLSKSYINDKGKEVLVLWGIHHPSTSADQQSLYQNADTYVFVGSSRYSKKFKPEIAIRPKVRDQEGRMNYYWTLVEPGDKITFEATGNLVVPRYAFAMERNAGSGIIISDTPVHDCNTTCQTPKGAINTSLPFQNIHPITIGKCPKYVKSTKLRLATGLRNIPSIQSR
Chain of viral hemagglutinin (C3W5S1 345-566 limits assumed): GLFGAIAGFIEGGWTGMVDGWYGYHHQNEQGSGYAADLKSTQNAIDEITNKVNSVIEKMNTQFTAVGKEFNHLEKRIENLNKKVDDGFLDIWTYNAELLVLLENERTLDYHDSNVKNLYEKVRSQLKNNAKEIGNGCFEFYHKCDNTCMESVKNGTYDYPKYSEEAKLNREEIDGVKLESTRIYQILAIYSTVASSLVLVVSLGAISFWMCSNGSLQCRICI

MDCK cells = conditions: read-out: CC50 (MDCK), 72 h incubation, maximum 100 µM
[7] = biological target: T1, neuraminidase NanA of S. pneumoniae strain DSM20566; conditions: Published; cited from earlier work
[8] = Streptococcus pneumoniae, DSM20566, 18 h
[9] = Streptococcus pneumoniae, S. pneumoniae DSM20566, 24 h, crystal violet, maximum 50 μM

Molecule	CC50 at 72 h (in vitro) [µM]	IC50 ([1]; Influenza A virus) [µM]	MIC IAV NA (minimum neuraminidase inhibitory concentration) [2]	MIC S.p. NanA (minimum neuraminidase inhibitory concentration) [3]	melting point [°C]	also measured
CCOC(=O)c1c(C)n(C)c2c1cc(OC)c1c2c(-c2ccc([N+](=O)[O-])cc2)nn1-c1ccccc1 [Compound 11a]	> 100	21.5	24.40 µM (≈ 11.8 µg/mL)	31.60 µM (≈ 15.3 µg/mL)	–	–
CCOC(=O)c1c(CN2CCOCC2)n(Cc2ccccc2)c2c1cc(O)c1c2c(-c2ccccc2)nn1-c1ccccc1 [Compound 10b]	–	33.2	54.40 µM (≈ 31.9 µg/mL)	10.0 µM and 10.00 µM	145 to 146	CC50 (in vitro): > 100 µM; IC50 (S. pneumoniae DSM20566 [4]; [8]): 7.57 µM
CCOC(=O)c1c(C)[nH]c2c1cc(O)c1c2c(-c2ccc(CC)cc2)nn1-c1ccccc1 [Compound 6j]	> 100	–	–	–	–	IC50 ([5]; Influenza A virus): 52.2 µM
CCCCCOc1cc2c(C(=O)OCC)c(C)[nH]c2c2c(-c3ccc([N+](=O)[O-])cc3)nn(-c3ccccc3)c12 [Compound 11d]	> 100	26.5	–	–	–	–
CCOC(=O)c1c(C)n(Cc2ccccc2)c2c1cc(O)c1c2c(-c2ccccc2)nn1-c1ccccc1 [Compound 6c, 1-Benzyl-5-hydroxy-3-ethoxycarbonyl-2-methyl-6,8-diphenyl-pyrrolo[2,3-e]indazole]	–	71.1	77.20 µM (≈ 38.7 µg/mL)	24.40 µM (≈ 12.2 µg/mL)	256 to 258	CC50 (in vitro): > 100 µM; IC50 (S. pneumoniae DSM20566 [4]; [8]): 8.9 µM; IC50 (S. pneumoniae DSM20566 [6]; Streptococcus pneumoniae, DSM20566, 24 h): 0.93 µM
CCOC(=O)c1c(C)n(C)c2c1cc(O)c1c2c(-c2ccccc2)nn1-c1ccccc1 [Compound 6b, 5-Hydroxy-3-ethoxycarbonyl-1,2-dimethyl-6,8-diphenyl-pyrrolo[2,3-e]indazole]	> 100	31.6	31.60 µM (≈ 13.4 µg/mL)	31.60 µM (≈ 13.4 µg/mL)	270 to 272	–
CCOC(=O)c1c(C)[nH]c2c1cc(O)c1c2c(-c2cc(Cl)cc(Cl)c2)nn1-c1ccccc1 [Compound 6k]	> 100	–	–	–	–	IC50 ([5]; Influenza A virus): 30.2 µM
CCOC(=O)c1c(CN2CCCCC2)n(C)c2c1cc(O)c1c2c(-c2ccccc2)nn1-c1ccccc1 [Compound 10a]	> 100	86.7	54.40 µM (≈ 27.7 µg/mL)	31.60 µM (≈ 16.1 µg/mL)	285	IC50 (S. pneumoniae DSM20566 [4]; Streptococcus pneumoniae, S. pneumoniae DSM20566, 18 h, OD 620 nm, maximum 50 μM): 6.88 µM; IC50 (S. pneumoniae DSM20566 [6]; [9]): 3.31 µM
CCOC(=O)c1c(C)[nH]c2c1cc(O)c1c2c(-c2ccc(-n3cccc3)cc2)nn1-c1ccccc1 [Compound 14]	> 100	11.4	24.40 µM (≈ 11.6 µg/mL)	10.0 µM and 10.00 µM	–	IC50 (S. pneumoniae DSM20566 [6]; [9]): 28 µM
CCOC(=O)c1c(C)n(C)c2c1cc(O)c1c2c(-c2ccc([N+](=O)[O-])cc2)nn1-c1ccccc1 [Compound 6f, 5-Hydroxy-3-ethoxycarbonyl-1,2-dimethyl-8-(4-nitrophenyl)-6-phenyl-pyrrolo[2,3-e]indazole]	> 100	–	77.20 µM (≈ 36.3 µg/mL)	31.60 µM (≈ 14.9 µg/mL)	258 to 261	IC50 ([5]; Influenza A virus): 42.5 µM
CCOC(=O)c1c(C)[nH]c2c1cc(OC(C)=O)c1c2c(-c2ccc([N+](=O)[O-])cc2)nn1-c1ccccc1 [Compound 11e]	> 100	16.7	17.20 µM (≈ 8.57 µg/mL)	10.0 µM and 10.00 µM	–	–
CCOC(=O)c1c(C)[nH]c2c1cc(OC(C)=O)c1c2c(-c2ccc(N)cc2)nn1-c1ccccc1 [Compound 13]	> 100	14.1	14.20 µM (≈ 6.65 µg/mL)	–	–	IC50 ([5]; Influenza A virus): 9.39 µM; Inhibition of hemagglutination (concentration) (viral hemagglutinin): 31.6 µM
CCOC(=O)c1c(C)n(Cc2ccccc2)c2c1cc(OC(C)=O)c1c2c(-c2ccccc2)nn1-c1ccccc1 [Compound 7b]	–	38.7	100.00 µM (≈ 54.4 µg/mL)	31.60 µM (≈ 17.2 µg/mL)	–	CC50 (in vitro): > 100 µM
CCOC(=O)c1c(CN2CCCCC2)n(C)c2c1cc(OC(C)=O)c1c2c(-c2ccccc2)nn1-c1ccccc1 [Compound 9a]	> 100	–	does not inhibit	54.40 µM (≈ 30 µg/mL)	203 to 205	–
CCOC(=O)c1c(C)n(C)c2c1cc(OC(C)=O)c1c2c(-c2ccccc2)nn1-c1ccccc1 [Compound 7a]	> 100	83.7	100.00 µM (≈ 46.8 µg/mL)	31.60 µM (≈ 14.8 µg/mL)	214 to 216	–
CCOC(=O)c1c(C)n(Cc2ccccc2)c2c1cc(O)c1c2c(-c2ccc([N+](=O)[O-])cc2)nn1-c1ccccc1 [Compound 6g, 1-Benzyl-5-hydroxy-3-ethoxycarbonyl-2-methyl-8-(4-nitrophenyl)-6-phenyl-pyrrolo[2,3-e]indazole]	–	–	–	–	226 to 228	CC50 (in vitro): > 100 µM
CC(=O)N[C@H]1[C@H]([C@H](O)[C@H](O)CO)OC(C(=O)O)=C[C@@H]1N=C(N)N [Zanamivir, zanamivir, reference compound]	–	0.11	3.16 µM (≈ 1.05 µg/mL)	–	–	–
5-hydroxy-3-ethoxycarbonyl-2-methyl-6,8-diphenyl-pyrrolo[2,3-e]indazole [Compound 6a]	–	–	70.00 µM	31.60 µM	–	CC50 (MDCK cells): > 100 µM
5-Hydroxy-3-ethoxycarbonyl-2-methyl-8-(4-nitrophenyl)-6-phenyl-pyrrolo[2,3-e]indazole [Compound 6e]	–	–	54.40 µM	14.32 µM	–	CC50 (MDCK cells): > 100 µM; IC50 [1]: 19.5 µM; IC50 [5]: 16.4 µM
5-Hydroxy-3-ethoxycarbonyl-2-methyl-6-phenyl-8-[4-(trifluoromethyl)phenyl]-pyrrolo[2,3-e]indazole [Compound 6h]	–	–	24.40 µM	10.0 µM and 10.00 µM	–	CC50 (MDCK cells): > 100 µM; IC50 [1]: 24.8 µM; IC50 (S. pneumoniae DSM20566 [4]; S. pneumoniae DSM20566, 18 h, OD 620 nm, maximum 50 μM): 50 µM; IC50 [5]: 30.5 µM; IC50 (S. pneumoniae DSM20566 [6]; S. pneumoniae DSM20566, 24 h, crystal violet, maximum 50 μM): 40.1 µM
CCOC(=O)c1c(C)n(CC)c2c1cc(OCC)c1c2c(-c2ccc([N+](=O)[O-])cc2)nn1-c1ccccc1 [Compound 11b]	–	25.5	77.20 µM (≈ 39.6 µg/mL)	54.40 µM (≈ 27.9 µg/mL)	175 to 177	CC50 (in vitro): > 100 µM
CCOC(=O)C1=C[C@@H](OC(CC)CC)[C@H](NC(C)=O)[C@@H](N)C1 [Oseltamivir, oseltamivir, reference compound]	–	–	1.97 µM (≈ 0.615 µg/mL)	–	–	MIC S.p. NanA (minimum neuraminidase inhibitory concentration) [7]: 2.08 ^a μM; IC50 [1]: 0.14 µM; IC50 [5]: 0.004 µM
CCOC(=O)c1c(C)[nH]c2c1cc(OCC)c1c2c(-c2ccc([N+](=O)[O-])cc2)nn1-c1ccccc1 [Compound 11c]	> 100	30.3	47.20 µM (≈ 22.9 µg/mL)	54.40 µM (≈ 26.4 µg/mL)	–	–
CCOC(=O)c1c(C)n(-c2ccc(OC)cc2)c2c1cc(O)c1c2c(-c2ccccc2)nn1-c1ccccc1 [Compound 6d, 5-Hydroxy-3-ethoxycarbonyl-1-(4-methoxyphenyl)-2-methyl-6,8-diphenyl-pyrrolo[2,3-e]indazole]	> 100	38.6	54.40 µM (≈ 28.2 µg/mL)	17.20 µM (≈ 8.9 µg/mL)	277 to 279	–
CCOC(=O)c1c(C)[nH]c2c1cc(O)c1c2c(-c2ccc(N)cc2)nn1-c1ccccc1 [Compound 12]	> 100	15.7	21.40 µM (≈ 9.13 µg/mL)	10.0 µM and 10.00 µM	–	IC50 ([5]; Influenza A virus): 8.54 µM
CCOC(=O)c1c(CN(CC)CC)n(C)c2c1cc(OC(C)=O)c1c2c(-c2ccccc2)nn1-c1ccccc1 [Compound 9b]	> 100	53.2	77.20 µM (≈ 41.6 µg/mL)	24.40 µM (≈ 13.1 µg/mL)	–	–
